What is called IC50 is the concentration at which inhibition is half-maximal. As a reminder, the melting point is the temperature of the solid-liquid transition.

In data set [1] the test system is C. violaceum CV026. Description: Preliminary screening of bacterial quorum sensing agonistic / inhibitory activity on LB plate (purple stain / white circle). The class given is cell-based. The settings on record: for Regulatory activity (bacterial quorum sensing regulatory activity): 1 μl of 0.065M compound spotted on plate, inhibitory screen with inducer C6-HSL, 30° C., 16-18 h; for Effect on bacterial quorum sensing (summary in words): summary of the activity evaluation experiments. The procedure:
1.1 Preparation work: different compounds to be tested (Compounds 1-40 prepared in Example 1-40) were weighted and then were dissolved in 200 μl DMSO (dimethyl sulfoxide) to prepare a solution at a concentration of 0.065M. 5.0 mg inducer, N-hexanoyl homoserine lactone (C6-HSL, purchased from Sigma Company), was weighted and was dissolved in 200 μl DMSO (at a concentration of 0.125M), and the compounds and the inducer were stored at 4 for further use. C. violaceum CV026 (donated by Professor McLean J C from Texas State University) in LB culture medium (LB culture medium consisting of 1% (percentage by mass) tryptone, 0.5% (percentage by mass) yeast extract, 1% (percentage by mass) NaCl and water) was cultured under shaking in a shaker at 30, 200 rpm to get the culture medium for further use.
1.2 Method for preliminary screening of compounds having agonistic activity: 400 μl C. violaceum CV026 (at a bacterial concentration of 1×10^8/ml) was added to 5 ml melted semi-solid LB culture medium, and was mixed well; the mixed culture medium was poured into a solid LB plate; when the mixed culture medium was solidified on the plate, lattice was made thereon; 1 μl of the dissolved compounds to be tested (Compounds 1-40 in Examples 1-40, at a concentration of 0.065M) was spotted on the plate; when the compounds on the plate was dried in air, the plate was put in a 30° C. oven upside down and was cultured for a period of 16-18 h. If the compound to be tested has an agonistic effect on C. violaceum CV026 on the LB plate, purple stain will be induced on the LB plate. The agonistic activity of a compound is determined depending on whether purple stain is induced for C. violaceum CV026 on LB plate as well as the purple depth.
1.3 Method for preliminary screening of compounds having inhibitory activity: the inducer C6-HSL was diluted gradiently to 1000 times by means of 2-fold dilution; 15 μl diluted inducer and 400 μl C. violaceum CV026 in exponential phase (at a bacterial concentration of 1×10^8/ml) were mixed well and then were added to a 5 ml melted semi-solid LB culture medium; the mixture of inducer, C. violaceum, and semi-solid LB was poured onto a solid LB plate; when the mixture was solidified on the plate, lattice was made thereon: 1 μl of the dissolved compounds to be tested (Compounds 1-40 in Examples 1-40, at a concentration of 0.065M) was spotted on the plate; when the compounds on the plate were dried in air, the plate was put in a 30° C. oven upside down and was cultured for a period of 16-18 h. If the compound to be tested has an inhibitory effect on C. violaceum CV026 on the LB plate, white circle will appear on the LB plate. The inhibitory activity of a compound is preliminary determined depending on the size of the white circle appeared after C. violaceum CV026 was inhibited on LB plate.
It is found after preliminary screening that 22 compounds according to the invention have bacterial quorum sensing regulatory activity, and the screening result was shown in Table 1.

In data set [2] the test system is C. violaceum CV026. Description: Measurement of IC50 of compounds having an inhibitory effect on C. violaceum quorum sensing (purple pigment absorbance at 585 nm). The class given is cell-based. Conditions: Chromobacterium violaceum, CV026, read-out: IC50 of compounds having bacterial quorum sensing inhibitory activity. The procedure:
2. Measurement of IC50 of Compounds Having an Inhibitory Effect on C. violaceum Quorum Sensing
2.1 The wells of a 12-well plate were marked as initial concentration, 2, 4, 8, 16, 32, 64, 128, 256, DMSO group, and a blank control group from left to right and from up to bottom, respectively.
2.2 The monoclonal C. violaceum CV026 grew on LB solid plate was cultured to exponational phase in a 5 ml fresh LB liquid culture medium, 50 μl was then taken for seeding in a 5 ml LB culture medium, and was cultured until the optical density OD value was about 1.0 at 585 nm; the culture was then mixed well with LB culture medium at a ratio of 1:9 by volume (with OD of about 0.15), and was added to a 12-well plate in an amount of 2 ml/well.
2.3 The compounds preliminarily screened to have quorum sensing inhibitory activity were dissolved respectively in DMSO (at a concentration of 0.065M), and then 10 μl was taken into 10 μl DMSO solution to achieve the purpose of 2-fold dilution, and so on. Each compound was gradiently diluted to a highest fold of 256 (gradient dilution of 2, 4, 8, 16, 32, 64, 128, 256 fold).
2.4 To each well, 15 μl 1000-fold diluted inducer C6-HSL (initial concentration of 0.125M) and 8 μl compound solution at each diluted gradient was added; to DMSO control group, 8 μl DMSO was added; to a blank control group, 8 μl LB culture medium was added. Finally, it was ensured that 2 ml culture in each of the 12-well plate was mixed well.
2.5 The 12-well plate was placed in a 30° C. shaker at 130 rpm and was cultured for 10-12 h.
2.6 After the culture was finished, 1 ml culture was taken from each well and was put in a 1.5 ml EP tube and then was centrifugated at 12000 rpm for 10 mins. […] 200 μl supernatant pigment was put in a 96-well culture plate, and was measured for absorbance value at 585 nm by a Microplate Reader, […] the absorbance value and the corresponding concentration were plotted to get the IC50 value.

For `O=C(NN1CCOC1=O)c1ccc([N+](=O)[O-])cc1` [Compound 7, 4-nitro-N-(2-oxo-oxazolidin-3-yl)benzamide], the melting point fell in the range of 206 to 208 °C. Also, in data set [1], the “Regulatory activity (bacterial quorum sensing regulatory activity)” value is “−” and the “Effect on bacterial quorum sensing (summary in words)” value was “inhibitory effect on bacterial quorum sensing”. In addition, the half-inhibitory concentration (IC50) in data set [2] stood at 18.7 ± 2.59 µM.
Taken in the same sequence, the figures for `CCc1ccc(C(=O)NN2CCOC2=O)cc1` [Compound 11, 4-ethyl-N-(2-oxo-oxazolidin-3-yl)benzamide] were 170 to 173 °C, “−”, “inhibitory effect on bacterial quorum sensing” and 13.9 ± 4.21 µM.
With `O=C(NN1CCOC1=O)c1ccc(Br)cc1` [Compound 12, 4-bromo-N-(2-oxo-oxazolidin-3-yl)benzamide], the melting point is 202 to 204 °C. In addition, in data set [1], the “Regulatory activity (bacterial quorum sensing regulatory activity)” value is “±”; the “Effect on bacterial quorum sensing (summary in words)” value is “both an agonizing effect and an inhibitory effect”. In addition, the half-maximal inhibitory concentration (IC50) in data set [2] turned out to be 7.85 ± 1.71 µM.

The values above are taken from patent US9914711B2 (priority 2013, dated 2018).
